Assay results: PubChem BioAssay AID2060616 (Molecular Pharmacology Branch, DTP, NCI, 2025)
Values joined by “and” are separate entries in the source; they are usually repeats but may differ in a detail not shown here. Identical values can stand only once.

Test system: 377384-186-R-J1-PDC complex spheroid viability
Assay: Anticancer human tumor 377384-186-R-J1-PDC patient-derived pancreatic carcinoma cell line growth inhibition [CLK]
Conditions: for viability, T/C: stronger effect = lower value
How it was run: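 Patient-derived tumor cells grown as complex spheroids with HUVEC endothelial cells and mesenchymal stem cells, treated with drug combinations. Concentrations descend in half-log steps from near clinical Cmax, or from 10 microM if Cmax unknown.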
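Also: spheroids exposed to agents for 7 days before reading.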
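For viability, T/C in this document: luminescence signal used as a stand-in for viable cells.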

In the case of `COc1c(OCCCN2CCOCC2)ccc2c3n(c(=NC(=O)c4cnc(N)nc4)nc12)CCN3` + CN1CCN(c2cc(C(=O)Nc3cc4cc(-c5cnn(C)c5)ccc4cn3)ccn2)CC1, the IC50 (curve of first compound, second compound 0.0316 µM) is reported as 0.0418 µM, the IC50 (curve of first compound, second compound 0.1 µM) is reported as 0.0389 µM and the IC50 (curve of first compound, second compound 0.316 µM) is reported as under 0.00316 µM. It also gave an IC50 (curve of first compound, second compound 1 µM) of under 0.00316 µM, an IC50 (curve of first compound, second compound 3.16 µM) of under 0.00316 µM and an IC50 (curve of first compound, second compound 10 µM) of under 0.00316 µM. The viability, T/C (second compound 0.0316 µM, first compound 0.00316 µM) was 103%, the viability, T/C (second compound 0.0316 µM, first compound 0.01 µM) was 72.8% and the viability, T/C (second compound 0.0316 µM, first compound 0.0316 µM) was 55.2%. The viability, T/C (second compound 0.0316 µM, first compound 0.1 µM) was 37.8%, the viability, T/C (second compound 0.0316 µM, first compound 0.316 µM) was 24.9% and the viability, T/C (second compound 0.0316 µM, first compound 1 µM) was 15%. It also gave a viability, T/C (second compound 0.1 µM, first compound 0.00316 µM) of 89.9%, a viability, T/C (second compound 0.1 µM, first compound 0.01 µM) of 77.2% and a viability, T/C (second compound 0.1 µM, first compound 0.0316 µM) of 48%. For the same compound, the viability, T/C (second compound 0.1 µM, first compound 0.1 µM) was 37.6%, the viability, T/C (second compound 0.1 µM, first compound 0.316 µM) was 25.3% and the viability, T/C (second compound 0.1 µM, first compound 1 µM) was 14.5%. For the same compound, the viability, T/C (second compound 0.316 µM, first compound 0.00316 µM) was 31.7%, the viability, T/C (second compound 0.316 µM, first compound 0.01 µM) was 22.1% and the viability, T/C (second compound 0.316 µM, first compound 0.0316 µM) was 18.7%. The viability, T/C (second compound 0.316 µM, first compound 0.1 µM) was 16.6%, the viability, T/C (second compound 0.316 µM, first compound 0.316 µM) was 14.2% and the viability, T/C (second compound 0.316 µM, first compound 1 µM) was 11.9%. The viability, T/C (second compound 1 µM, first compound 0.00316 µM) was 2.68%, the viability, T/C (second compound 1 µM, first compound 0.01 µM) was 2.64% and the viability, T/C (second compound 1 µM, first compound 0.0316 µM) was 1.8%. For the same compound, the viability, T/C (second compound 1 µM, first compound 0.1 µM) was 1.85%, the viability, T/C (second compound 1 µM, first compound 0.316 µM) was 2.19% and the viability, T/C (second compound 1 µM, first compound 1 µM) was 2.43%. The viability, T/C (second compound 3.16 µM, first compound 0.00316 µM) was 0.37%, the viability, T/C (second compound 3.16 µM, first compound 0.01 µM) was 0.47% and the viability, T/C (second compound 3.16 µM, first compound 0.0316 µM) was 0.92%. For the same compound, the viability, T/C (second compound 3.16 µM, first compound 0.1 µM) was 0.45%, the viability, T/C (second compound 3.16 µM, first compound 0.316 µM) was 0.44% and the viability, T/C (second compound 3.16 µM, first compound 1 µM) was 1.06%. It also gave a viability, T/C (second compound 10 µM, first compound 0.00316 µM) of 0.5%, a viability, T/C (second compound 10 µM, first compound 0.01 µM) of 0.28% and a viability, T/C (second compound 10 µM, first compound 0.0316 µM) of 0.28%. For the same compound, the viability, T/C (second compound 10 µM, first compound 0.1 µM) was 0.32%, the viability, T/C (second compound 10 µM, first compound 0.316 µM) was 0.33% and the viability, T/C (second compound 10 µM, first compound 1 µM) was 0.34%.

`C#Cc1c(F)ccc2cc(O)cc(-c3ncc4c(N5CC6CCC(C5)N6)nc(OCC56CCCN5CC(F)C6)nc4c3F)c12` (stereo unspecified) was tested, and the viability, T/C (compound 0.0316 µM) was 21.7% and 21.4%, the viability, T/C (compound 0.1 µM) was 9.43% and 10.6% and the viability, T/C (compound 0.316 µM) was 5.31% and 3.97%. The viability, T/C (compound 1 µM) was 4.69% and 4.41%, the viability, T/C (compound 3.16 µM) was 2.25% and 2.02% and the viability, T/C (compound 10 µM) was 1.85% and 1.77%. For the same compound, the IC50 (curve of compound) was under 0.0316 µM.

For `Nc1ccccc1NC(=O)c1ccc(CNC(=O)OCc2cccnc2)cc1`, the viability, T/C (compound 0.0316 µM) was 85.8% and 79.5%, the viability, T/C (compound 0.1 µM) was 85.5% and 77.1% and the viability, T/C (compound 0.316 µM) was 65.3% and 57.9%. For the same compound, the viability, T/C (compound 1 µM) was 35.8% and 30.4%, the viability, T/C (compound 3.16 µM) was 13.3% and 12.8% and the viability, T/C (compound 10 µM) was 2.14% and 1.31%. For the same compound, the IC50 (curve of compound) was 0.589 µM and 0.452 µM.

In the case of `CC1(C)CCC(CN2CCN(c3ccc(C(=O)NS(=O)(=O)c4ccc(NCC5CCOCC5)c([N+](=O)[O-])c4)c(Oc4cnc5[nH]ccc5c4)c3)CC2)=C(c2ccc(Cl)cc2)C1`, the viability, T/C (compound 0.0316 µM) is reported as 83.6% and 106%, the viability, T/C (compound 0.1 µM) is reported as 86.1% and 92.5% and the viability, T/C (compound 0.316 µM) is reported as 92.9% and 90.5%. The viability, T/C (compound 1 µM) was 99% and 97%, the viability, T/C (compound 3.16 µM) was 82.7% and 83.9% and the IC50 (curve of compound) was 5.2 µM and > 10 µM.

With `C=CC(=O)N1CCN(c2nc(=O)n(-c3c(C)ccnc3C(C)C)c3nc(-c4c(O)cccc4F)c(F)cc23)C(C)C1` (stereo unspecified) the viability, T/C (compound 0.0316 µM) was 108% and 87.8%, the viability, T/C (compound 0.1 µM) was 83.9% and 127% and the viability, T/C (compound 0.316 µM) was 100% and 101%. The viability, T/C (compound 1 µM) was 119% and 105%, the viability, T/C (compound 3.16 µM) was 110% and 117% and the viability, T/C (compound 10 µM) was 84.3% and 90.5%. The IC50 (curve of compound) was over 10 µM.

With `CC(CO)NC(=O)c1cc(-c2ccc(Cl)cc2)nn(-c2cnn(C)c2)c1=O` (stereo unspecified) the viability, T/C (compound 0.0316 µM) was 94.9% and 112%, the viability, T/C (compound 0.1 µM) was 101% and 85.5% and the viability, T/C (compound 0.316 µM) was 105% and 103%. The viability, T/C (compound 1 µM) was 102% and 82.1%, the viability, T/C (compound 3.16 µM) was 77.7% and 70.1% and the viability, T/C (compound 10 µM) was 39.5% and 45.9%. For the same compound, the IC50 (curve of compound) was 7.29 µM and 8.48 µM.
